Data: paper PMC11784839, “Monoaminergic neurotransmitters are bimodal effectors of tau aggregation” (Science Advances, 2025)

Target: tau (Homo sapiens, UniProt P10636)
Experiment: MCE Phenols Library screening, tau biosensor cell seeding assay (AvZ)
Assay type: cell-based
Settings: for Z repl 1 / Z Repl 2: Z score; for Z repl 1 / raw data 1: replicate 1; for Z Repl 2 / raw data 2: replicate 2; for AvZ (average z score of seeding, SDs from the mean level of seeding): 10 μM phenol in cell cultures, AD brain homogenate preincubated 16 hours, two biological replicates, positive = catalyzes seeding, negative = inhibits
[1] = average Z score of the two replicates, tau seeding
[2] = average Z score of the two replicates, tau biosensor seeding, MCE Phenols Library screen
[3] = average puncta of the two replicates
[4] = average Z score of the two replicates, MCE Phenols Library screen
[5] = average Z score of two replicates, Phenols Library screen

Chain of tau (P10636 623-695 limits assumed): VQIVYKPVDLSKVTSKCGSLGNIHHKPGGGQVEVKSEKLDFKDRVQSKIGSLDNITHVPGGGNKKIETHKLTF

Z repl 1 | Z Repl 2 | av Z [1] | av puncta (average of raw data 1 and 2) | raw data 1 (puncta) | raw data 2 (puncta) | av Z [2] | av puncta [3] | av Z [4] | raw data 1 (raw puncta) | raw data 2 (raw puncta) | av Z [5] | Structure (SMILES) | AvZ (average z score of seeding, SDs from the mean level of seeding)
0.553 | -0.208 | 0.172 | 21762.9 | 32984.4 | 10541.3 | – | – | – | – | – | – | COc1cc2c(cc1O)CC[n+]1cc3c4c(ccc3cc1-2)OCO4 [Groenlandicine] | –
0.758 | 0.703 | – | 27858.6 | 35445.3 | 20271.9 | 0.73 | – | – | – | – | – | C[C@@H]1O[C@@H](Oc2c(-c3ccc(O)cc3)oc3cc(O[C@@H]4O[C@@H](C)[C@H](O)[C@@H](O)[C@H]4O[C@@H]4O[C@H](CO)[C@@H](O)[C@H](O)[C@H]4O)cc(O)c3c2=O)[C@H](O)[C@H](O)[C@H]1O [Grosvenorine] | –
-0.067 | -0.383 | – | – | – | – | – | 17108.5 | -0.225 | 25544.8 | 8672.24 | – | O=c1c(O[C@@H]2OC[C@H](O)[C@H](O)[C@H]2O)c(-c2ccc(O)c(O)c2)oc2cc(O)cc(O)c12 [Guaijaverin] | –
-2.129 | -1.129 | – | 747.252 | 787.042 | 707.463 | – | – | -1.629 | – | – | – | O=c1c(O)c(-c2ccc(O)cc2)oc2c(O)c(O)cc(O)c12 [Herbacetin] | -1.63
0.687 | -0.112 | 0.287 | 23081.7 | 34594.7 | 11568.8 | – | – | – | – | – | – | O=c1cc(O)cc(/C=C/c2ccc(O)c(O)c2)o1 [Hispidin] | –
-0.079 | -0.247 | – | 17765.2 | 25406.2 | 10124.2 | – | – | – | – | – | -0.163 | COc1c(O[C@@H]2O[C@H](CO)[C@@H](O)[C@H](O)[C@H]2O)cc2oc(-c3ccc(O)cc3)cc(=O)c2c1O [Homoplantaginin] | –
-0.407 | -0.493 | – | – | – | – | – | 14482.9 | -0.45 | 21459.9 | 7505.79 | – | COc1cc(O)c2c(=O)cc(-c3ccc(O)c(O)c3)oc2c1 [Hydroxygenkwanin] | –
-0.826 | -0.428 | – | – | 16428.1 | 8192.15 | – | 12310.1 | -0.627 | – | – | – | O=C(/C=C/c1ccc(O)cc1)C1=C(O)C(O)([C@@H]2O[C@H](CO)[C@@H](O)[C@H](O)[C@H]2O)C(O)=C([C@@H]2O[C@H](CO)[C@@H](O)[C@H](O)[C@H]2O)C1=O (stereo partly drawn) [Hydroxysafflor yellow A] | –
-0.253 | -0.241 | – | – | – | – | – | 16752.5 | -0.247 | 23311.4 | 10193.6 | – | O=c1c(O[C@@H]2O[C@H](CO)[C@H](O)[C@H](O)[C@H]2O)c(-c2ccc(O)c(O)c2)oc2cc(O)cc(O)c12 [Hyperoside] | –
0.381 | 0.569 | 0.475 | 24883.3 | 30921.9 | 18844.8 | – | – | – | – | – | – | COc1ccc(-c2oc3c(CC=C(C)C)c(O[C@@H]4O[C@H](CO)[C@@H](O)[C@H](O)[C@H]4O)cc(O)c3c(=O)c2O[C@@H]2O[C@@H](C)[C@H](O)[C@@H](O)[C@H]2O)cc1 [Icariin] | –
0.42 | 0.629 | 0.525 | 25439.4 | 31392.8 | 19486 | – | – | – | – | – | – | COc1ccc(-c2oc3c(CC=C(C)C)c(O)cc(O)c3c(=O)c2O)cc1 [Icaritin] | –
0.626 | -0.232 | 0.197 | 22078.3 | 33866.6 | 10290 | – | – | – | – | – | – | O=C(c1ccc(O)cc1)c1c(O)cc(O)c([C@@H]2O[C@H](CO)[C@@H](O)[C@H](O)[C@H]2O)c1O [Iriflophenone 3-C-glucoside] | –
0.554 | 1.188 | – | 29224.4 | 32994.7 | 25454.1 | 0.871 | – | – | – | – | – | COc1ccc(-c2coc3cc(O)c(OC)c(O)c3c2=O)cc1 [Irisolidone] | –
0.106 | 0.25 | 0.178 | 21528.7 | 27620 | 15437.3 | – | – | – | – | – | – | COc1ccc(-c2coc3cc(O[C@@H]4O[C@H](CO)[C@@H](O)[C@H](O)[C@H]4O)c(OC)c(O)c3c2=O)cc1O [Iristectorin A] | –
-0.293 | -0.887 | – | – | 22827.1 | 3295.67 | – | 13061.4 | -0.59 | – | – | – | COc1cc(-c2coc3cc(O[C@@H]4O[C@H](CO)[C@@H](O)[C@H](O)[C@H]4O)c(OC)c(O)c3c2=O)ccc1O [Iristectorin B] | –
-0.182 | 0.275 | – | 19930.3 | 24161.4 | 15699.2 | – | – | – | – | – | 0.046 | O=C(/C=C/c1ccc(O)c(O)c1)O[C@@H]1C[C@](O)(C(=O)O)C[C@@H](OC(=O)/C=C/c2ccc(O)c(O)c2)[C@H]1O [Isochlorogenic acid A] | –
0.35 | -0.155 | – | 20831 | 30549.1 | 11112.8 | – | – | – | – | – | 0.098 | COc1ccc2c(=O)c(-c3ccc(O)cc3)coc2c1 [Isoformononetin] | –
0.211 | 0.742 | 0.477 | 24789.8 | 28887.4 | 20692.2 | – | – | – | – | – | – | COc1cc2ccc(=O)oc2c(OC)c1O [Isofraxidin] | –
0.107 | 0.423 | 0.265 | 22459.5 | 27639.6 | 17279.4 | – | – | – | – | – | – | COc1ccc(C[C@@H]2c3cc(Oc4cc(C[C@@H]5c6cc(O)c(OC)cc6CCN5C)ccc4O)c(OC)cc3CCN2C)cc1 [Isoliensinine] | –

The next lines start with the molecule.

Structure (SMILES) | Z repl 1 | Z Repl 2 | av Z [1] | av puncta (average of raw data 1 and 2) | raw data 1 (puncta) | raw data 2 (puncta) | av Z [2] | av puncta [3] | av Z [4] | raw data 1 (raw puncta) | raw data 2 (raw puncta) | av Z [5] | AvZ (average z score of seeding, SDs from the mean level of seeding)
COc1ccccc1O [Guaiacol] | -0.724 | -0.582 | – | – | 17657.8 | 6546.75 | – | 12102.3 | – | – | – | – | -0.653
Oc1cc2c(cc1O)[C@@H]1c3ccc(O)c(O)c3OC[C@]1(O)C2 [Hematoxylin] | -1.7 | -0.865 | – | 4731.6 | 5936.96 | 3526.25 | – | – | -1.283 | – | – | – | –
Cl.Oc1ccc(CC2NCCc3cc(O)c(O)cc32)cc1 (stereo not drawn) [Higenamine (hydrochloride)] | -0.238 | -1.059 | – | – | 23487.2 | 1451.73 | – | 12469.5 | -0.649 | – | – | – | –
COc1cc(CNC(=O)CCCCCCCC(C)C)ccc1O [Homodihydrocapsaicin I] | -0.665 | 0.327 | – | 17309.6 | 18361.4 | 16257.8 | – | – | – | – | – | – | -0.169
O=C(O)Cc1cc(O)ccc1O [Homogentisic acid] | -1.286 | -1.085 | – | 6046.8 | 10913.7 | 1179.87 | – | – | – | – | – | – | -1.185
COc1cc(CCO)ccc1O [Homovanillyl alcohol] | -0.272 | 0.136 | – | 18647.3 | 23079.4 | 14215.2 | – | – | – | – | – | – | -0.068
O=C(O)C(O)Cc1ccc(O)cc1 (stereo not drawn) [Hydroxyphenyllactic acid] | -0.248 | 0.325 | – | 19806.4 | 23372.2 | 16240.5 | – | – | – | – | – | – | 0.039
CC(=O)OCCc1ccc(O)c(O)c1 [Hydroxytyrosol acetate] | -0.003 | -1.049 | – | – | 26308.5 | 1565.31 | – | 13936.9 | – | – | – | – | –
OCCc1ccc(O)c(O)c1 [Hydroxytyrosol] | -0.11 | -0.571 | – | – | – | – | – | 15851.9 | – | 25031.1 | 6672.58 | – | -0.34
Cc1cc(O)c2c(=O)c3c(O)cc(O)c4c5c(O)cc(O)c6c(=O)c7c(O)cc(C)c8c1c2c(c34)c(c78)c65 [Hypericin] | -1.344 | -0.424 | – | 9227.43 | 10216.3 | 8238.56 | – | – | -0.884 | – | – | – | –
COc1c2c3c4c(c(OC)c(=O)c5c(O)cc(OC)c(c6c(OC)cc(O)c(c1=O)c63)c54)[C@@H](C(C)=O)[C@@](C)(O)C2 [Hypocrellin A] | -1.761 | -1.119 | – | 3011.52 | 5209.06 | 813.974 | – | – | -1.44 | – | – | – | –
COc1ccc2c(c1O)-c1c(OC)c(OC)cc3c1[C@H](C2)N(C)CC3 [Isocorydine] | -0.45 | -0.651 | – | – | 20943.6 | 5817.19 | – | 13380.4 | -0.55 | – | – | – | –
C/C=C/c1ccc(OC(C)=O)c(OC)c1 [Isoeugenol acetate] | -0.788 | 0.239 | – | – | – | – | – | 16103.3 | – | 16893.4 | 15313.2 | – | -0.275
